The numbers were not newly measured in US20060111343A1, “Oxcarbazepine dosage forms” (Glenmark Pharmaceuticals Limited, priority 2004, published 2006), which cites them from elsewhere.

`NC(=O)N1c2ccccc2CC(=O)c2ccccc21` [Oxcarbazepine, 10,11-dihydro-10-oxo-5H-dibenzo[b,]azepine-5-carboxamide]: the solubility in water entry was “poor solubility in water”.
